6 substances from patent publication US8178506B2, “Oligomeric compounds and compositions for use in modulation of small non-coding RNAs” (Regulus Therapeutics Inc., priority 2003, dated 2012) can be followed below.

In the oligonucleotide strings, read from the 5' end, every base follows the letter of its sugar. An asterisk marks phosphorothioate; unmarked linkages are phosphodiester. Other units and linkages are bracketed, terminal groups are in braces. A string of capitals states the bases alone. e = 2'-O-(2-methoxyethyl) (MOE); [5mC] = 5-methylcytosine

What all share (assay type): cell-based, human
The test system of one series is adipocytes. Nature of the series: Triglyceride accumulation assay in adipocytes.
The test system of the next series is PPARγ. Nature of the series: PPARγ mRNA expression in adipocytes (real-time PCR). On the technique in general: Real-time PCR tracks product formation cycle by cycle.
A further series concerns Glut4. Description: Glut4 mRNA expression in adipocytes (real-time PCR).
Another series has as its system HSL. Nature of the series: HSL mRNA expression in adipocytes (real-time PCR).
The subject of the next series is aP2. Description: aP2 mRNA expression in adipocytes (real-time PCR). The settings on record: for AP2 mRNA: differentiating adipocytes, control = treatment with ISIS 342673; for aP2 mRNA: differentiating adipocytes transfected with oligomeric compound, Table 75.
Setting [1] is: Table 17, differentiating adipocytes, control = treatment with ISIS 342673.
Setting [2] is: differentiating adipocytes transfected with oligomeric compound, Table 75.
Setting [3] is: Table 18, differentiating adipocytes, control = treatment with ISIS 342673.

Take “328121 (antisense eA*eT*eG*eA*e[5mC]*eT*eA*e[5mC]*eA*eA*eG*eT*eT*eT*eA*eT*eG*eG*e[5mC]*e[5mC]*eA) [compound 328121]”: the figures for the “TG (triglyceride accumulation)” value in the series on adipocytes (setting [1]) and with adipocytes (setting [2]) were 134.8 percentage of control and 119 percentage of untreated control (UTC), respectively. The “PPAR gamma mRNA” value in the series on PPARγ (setting [1]) is on record as 103.6 percentage of control; in the series with PPARγ (setting [2]), 105 percentage of untreated control (UTC). For the same substance, the entries for the “GLUT4 mRNA” value in the series with Glut4 (setting [1]) and in the series on Glut4 (setting [2]) were 140.8 percentage of control and 115 percentage of untreated control (UTC), respectively. For the same substance, the “HSL mRNA” value with HSL (setting [1]) is listed as 126.0 percentage of control; in the series with HSL (setting [2]), 110 percentage of untreated control (UTC). For the same substance, the “AP2 mRNA” value in the series with aP2 (Table 17) is 127.0 percentage of control. Further, in the series with aP2, the “aP2 mRNA” value is listed as 119 percentage of untreated control (UTC).

Take “327970 (antisense eA*e[5mC]*eA*eA*eA*eG*eT*eT*e[5mC]*eT*eG*eT*eA*eG*eT*eG*e[5mC]*eA*e[5mC]*eT*eG*eA) [compound 327970]”: the “TG (triglyceride accumulation)” value in the series with adipocytes (setting [2]) is recorded as 48 percentage of untreated control (UTC). In addition, in the series on PPARγ (setting [2]), the “PPAR gamma mRNA” value is on record as 46 percentage of untreated control (UTC). The “GLUT4 mRNA” value with Glut4 (setting [2]) is 27 percentage of untreated control (UTC). The “HSL mRNA” value with HSL (setting [2]) is given as 25 percentage of untreated control (UTC). The “aP2 mRNA” value in the series on aP2 was 29 percentage of untreated control (UTC).

As for “340358 (antisense CAGCUAUGCCAGCAUCUUGCC; all 2'-MOE, all phosphorothioate, methylation of C and T or U not given here) [compound 340358]”, in the series with adipocytes (setting [2]), the “TG (triglyceride accumulation)” value was 23 percentage of untreated control (UTC). Moreover, in the series on PPARγ (setting [2]), the “PPAR gamma mRNA” value was 42 percentage of untreated control (UTC). Also, in the series on Glut4 (setting [2]), the “GLUT4 mRNA” value is 21 percentage of untreated control (UTC). Besides, the “HSL mRNA” value in the series on HSL (setting [2]) is on record as 24 percentage of untreated control (UTC). Also, the “aP2 mRNA” value in the series with aP2 is 47 percentage of untreated control (UTC).

In the case of “348125 (GCUGGAUGCAAACCUGCAAAACU; anti-miR; all 2'-MOE, all phosphorothioate, methylation of C and T or U not given here) [compound 348125]”, the “TG (triglyceride accumulation)” value in the series with adipocytes (setting [2]) was 79 percentage of untreated control (UTC). Besides, in the series with PPARγ (setting [2]), the “PPAR gamma mRNA” value is recorded as 64 percentage of untreated control (UTC). In the series with Glut4 (setting [2]), the “GLUT4 mRNA” value was 65 percentage of untreated control (UTC). Moreover, the “HSL mRNA” value in the series on HSL (setting [2]) is given as 64 percentage of untreated control (UTC). For the same substance, the “aP2 mRNA” value with aP2 is listed as 67 percentage of untreated control (UTC).

Take “328102 (antisense eG*e[5mC]*e[5mC]*e[5mC]*e[5mC]*eA*eT*eT*eA*eA*eT*eA*eT*eT*eT*eT*eA*eA*e[5mC]*e[5mC]*eA) [compound 328102]”: the entries for the “TG (triglyceride accumulation)” value with adipocytes (setting [3]) and in the series with adipocytes (setting [2]) were 95.9 percentage of control and 70 percentage of untreated control (UTC), respectively. Moreover, the “PPAR gamma mRNA” value in the series with PPARγ (setting [3]) is 93.7 percentage of control; with PPARγ (setting [2]) it was 94 percentage of untreated control (UTC). Moreover, the results for the “GLUT4 mRNA” value in the series on Glut4 (setting [3]) and with Glut4 (setting [2]) were 79.2 percentage of control and 58 percentage of untreated control (UTC), respectively. Also, the “HSL mRNA” value with HSL (setting [3]) was 97.0 percentage of control; with HSL (setting [2]), 99 percentage of untreated control (UTC). For the same substance, the “AP2 mRNA” value with aP2 (Table 18) is 87.9 percentage of control. In the series on aP2, the “aP2 mRNA” value is recorded as 96 percentage of untreated control (UTC).

For “328097 (antisense eT*eG*eT*e[5mC]*eA*eG*eA*eT*eA*eA*eA*e[5mC]*eA*eG*eA*eG*eT*eG*eG*eA*eA) [compound 328097]”, the “TG (triglyceride accumulation)” value with adipocytes (setting [2]) is 65 percentage of untreated control (UTC). Further, the “PPAR gamma mRNA” value in the series with PPARγ (setting [2]) is given as 63 percentage of untreated control (UTC). Besides, the “GLUT4 mRNA” value with Glut4 (setting [2]) is recorded as 62 percentage of untreated control (UTC). For the same substance, the “HSL mRNA” value in the series on HSL (setting [2]) is 54 percentage of untreated control (UTC). In addition, in the series with aP2, the “aP2 mRNA” value is on record as 48 percentage of untreated control (UTC).
